Measurements from patent publication US11807835B2, “Detergent compositions containing a stabilized enzyme by phosphonates” (ECOLAB USA INC., priority 2016, dated 2023).

Test system: amylase
Test: Amylase activity retention in detergent use solution (4000 ppm, 5 GPG water; ethylidene substrate EPS, HEPES buffer pH 8.0)
Assay type: biochemical
Description: The enzyme activities in the detergents with different phosphonate levels were tested at 4000 ppm in 5 grains per gallon (GPG) water at 120° F. with various time points collected up to 4 hours, after a use solution was generated from the detergent composition. During the tests, the samples at different time points were collected and immediately frozen in an acetone/dry ice bath and stored in −80° C. before the activity of the enzyme was evaluated. For the use of such an assay, t=0 min was the reference point for 100% enzyme activity.
Assays of enzyme activity in formulations (% retention) were conducted to simulate a presoak condition in a beaker using the chemistry, temperature, and pH conditions relevant to manual warewash or presoak applications. Enzyme activity is an indicator of the stability of the enzyme in the detergent, specifically in an aqueous use solution within a sump (which is under conditions of high pH, temperature and dilution).
Enzyme activity under presoak or manual warewash conditions was traced quantitatively using a standard protease assay. Samples were prepared under bench top conditions, whereby the use solution from a detergent composition or detergent was obtained and maintained at a presoak or manual warewash temperature in a stirring water bath. After the time course for assessing enzyme stability is initiated, aliquots were taken at various time points and flash-frozen. A time=0 sample was prepared for each series by dissolving the detergent formulation at room temperature, mixing thoroughly, and flash freezing. Samples were thawed and diluted as necessary in an assay buffer usually for use in the protease assay. A glycine buffer at pH 9.0 is used here. The assay monitored the direct reaction of the protease on a small, commercially available peptidyl substrate, with liberation of the product providing correlation to the active enzyme content. The product was detected using a plate reader with an appreciable dynamic range (upper absorbance limit of the instrument >3.5). Enzyme activity levels were assessed relative to a calibration curve with average values for replicate tests used to map protease stability under presoak or manual warewash use conditions. Enzyme retention at each time point was calculated as the % enzyme activity relative to the time=0 sample.
The analysis by lipase and amylase assay was conducted similarly, except with a different substrate and buffers. For lipase activity, the substrate is p-nitrophenyl valerate, and for amylase, the substrate is an ethylidene substrate (EPS). The buffer used in lipase assay is TRIS (Tris(hydroxymethyl)aminomethane) buffer at pH 8.0, and in amylase assay HEPES (4-(2-hydroxyethyl)-1-piperazineethanesulfonic acid) buffer at pH 8.0.

[1] = base formula, phosphonate 0.3 wt-%, use solution at 120° F., time 0 min
[2] = base formula, phosphonate 0.3 wt-%, use solution at 120° F., time 5 min
[3] = base formula, phosphonate 0.3 wt-%, use solution at 120° F., time 10 min
[4] = base formula, phosphonate 0.3 wt-%, use solution at 120° F., time 20 min
[5] = base formula, phosphonate 0.3 wt-%, use solution at 120° F., time 40 min
[6] = base formula, phosphonate 0.3 wt-%, use solution at 120° F., time 60 min
[7] = base formula, phosphonate 0.3 wt-%, use solution at 120° F., time 90 min
[8] = base formula, phosphonate 0.3 wt-%, use solution at 120° F., time 120 min
[9] = base formula, phosphonate 0.3 wt-%, use solution at 120° F., time 150 min
[10] = base formula, phosphonate 0.3 wt-%, use solution at 120° F., time 180 min
[11] = base formula, phosphonate 0.3 wt-%, use solution at 120° F., time 210 min
[12] = base formula, phosphonate 0.3 wt-%, use solution at 120° F., time 240 min
[13] = base formula, phosphonate 0.6 wt-%, use solution at 120º F., time 0 min
[14] = base formula, phosphonate 0.6 wt-%, use solution at 120º F., time 5 min
[15] = base formula, phosphonate 0.6 wt-%, use solution at 120º F., time 10 min
[16] = base formula, phosphonate 0.6 wt-%, use solution at 120º F., time 20 min
[17] = base formula, phosphonate 0.6 wt-%, use solution at 120º F., time 40 min
[18] = base formula, phosphonate 0.6 wt-%, use solution at 120º F., time 60 min
[19] = base formula, phosphonate 0.6 wt-%, use solution at 120º F., time 90 min
[20] = base formula, phosphonate 0.6 wt-%, use solution at 120º F., time 120 min
[21] = base formula, phosphonate 0.6 wt-%, use solution at 120º F., time 150 min
[22] = base formula, phosphonate 0.6 wt-%, use solution at 120º F., time 180 min
[23] = base formula, phosphonate 0.6 wt-%, use solution at 120º F., time 210 min
[24] = base formula, phosphonate 0.6 wt-%, use solution at 120º F., time 240 min
[25] = base formula, phosphonate at 0.1% elemental phosphorus level, use solution at 120º F., time 0 min
[26] = base formula, phosphonate at 0.1% elemental phosphorus level, use solution at 120º F., time 5 min
[27] = base formula, phosphonate at 0.1% elemental phosphorus level, use solution at 120º F., time 10 min
[28] = base formula, phosphonate at 0.1% elemental phosphorus level, use solution at 120º F., time 20 min
[29] = base formula, phosphonate at 0.1% elemental phosphorus level, use solution at 120º F., time 40 min
[30] = base formula, phosphonate at 0.1% elemental phosphorus level, use solution at 120º F., time 60 min
[31] = base formula, phosphonate at 0.1% elemental phosphorus level, use solution at 120º F., time 90 min
[32] = base formula, phosphonate at 0.1% elemental phosphorus level, use solution at 120º F., time 120 min
[33] = base formula, phosphonate at 0.1% elemental phosphorus level, use solution at 120º F., time 150 min
[34] = base formula, phosphonate at 0.1% elemental phosphorus level, use solution at 120º F., time 180 min
[35] = base formula, phosphonate at 0.1% elemental phosphorus level, use solution at 120º F., time 210 min
[36] = base formula, phosphonate at 0.1% elemental phosphorus level, use solution at 120º F., time 240 min

O=P(O)(O)CN(CP(=O)(O)O)CP(=O)(O)O [ATMP, Aminotri (methylene phosphonic acid)]
Relative Amylase Enzyme Activity (All Ash formula, phosphonate 0.3 wt-%, use solution at 120° F., time 0 min): 98.49%
Relative Amylase Enzyme Activity (All Ash formula, phosphonate 0.3 wt-%, use solution at 120° F., time 5 min): 100.00%
Relative Amylase Enzyme Activity (All Ash formula, phosphonate 0.3 wt-%, use solution at 120° F., time 10 min): 98.40%
Relative Amylase Enzyme Activity (All Ash formula, phosphonate 0.3 wt-%, use solution at 120° F., time 20 min): 97.90%
Relative Amylase Enzyme Activity (All Ash formula, phosphonate 0.3 wt-%, use solution at 120° F., time 40 min): 91.03%
Relative Amylase Enzyme Activity (All Ash formula, phosphonate 0.3 wt-%, use solution at 120° F., time 60 min): 86.91%
Relative Amylase Enzyme Activity (All Ash formula, phosphonate 0.3 wt-%, use solution at 120° F., time 90 min): 87.68%
Relative Amylase Enzyme Activity (All Ash formula, phosphonate 0.3 wt-%, use solution at 120° F., time 120 min): 80.93%
Relative Amylase Enzyme Activity (All Ash formula, phosphonate 0.3 wt-%, use solution at 120° F., time 150 min): 83.80%
Relative Amylase Enzyme Activity (All Ash formula, phosphonate 0.3 wt-%, use solution at 120° F., time 180 min): 80.91%
Relative Amylase Enzyme Activity (All Ash formula, phosphonate 0.3 wt-%, use solution at 120° F., time 210 min): 84.34%
Relative Amylase Enzyme Activity (All Ash formula, phosphonate 0.3 wt-%, use solution at 120° F., time 240 min): 83.21%
amylase stability in all ash formula (all ash formula, versus same composition with PBTC or HEDP without amine(s), FIG. 4D): more stable
Relative Amylase Enzyme Activity [1]: 100.00%
Relative Amylase Enzyme Activity [2]: 89.47%
Relative Amylase Enzyme Activity [3]: 82.94%
Relative Amylase Enzyme Activity [4]: 79.67%
Relative Amylase Enzyme Activity [5]: 90.79%
Relative Amylase Enzyme Activity [6]: 89.94%
Relative Amylase Enzyme Activity [7]: 94.47%
Relative Amylase Enzyme Activity [8]: 95.08%
Relative Amylase Enzyme Activity [9]: 94.00%
Relative Amylase Enzyme Activity [10]: 90.87%
Relative Amylase Enzyme Activity [11]: 94.61%
Relative Amylase Enzyme Activity [12]: 96.54%
Relative Amylase Enzyme Activity [13]: 100.00%
Relative Amylase Enzyme Activity [14]: 87.10%
Relative Amylase Enzyme Activity [15]: 92.19%
Relative Amylase Enzyme Activity [16]: 80.12%
Relative Amylase Enzyme Activity [17]: 77.64%
Relative Amylase Enzyme Activity [18]: 91.13%
Relative Amylase Enzyme Activity [19]: 92.19%
Relative Amylase Enzyme Activity [20]: 93.02%
Relative Amylase Enzyme Activity [21]: 101.54%
Relative Amylase Enzyme Activity [22]: 80.83%
Relative Amylase Enzyme Activity [23]: 92.78%
Relative Amylase Enzyme Activity [24]: 86.75%
Relative Amylase Enzyme Activity [25]: 82.19%
Relative Amylase Enzyme Activity [26]: 100.00%
Relative Amylase Enzyme Activity [27]: 107.32%
Relative Amylase Enzyme Activity [28]: 106.35%
Relative Amylase Enzyme Activity [29]: 100.35%
Relative Amylase Enzyme Activity [30]: 106.09%
Relative Amylase Enzyme Activity [31]: 101.79%
Relative Amylase Enzyme Activity [32]: 104.38%
Relative Amylase Enzyme Activity [33]: 101.75%
Relative Amylase Enzyme Activity [34]: 103.89%
Relative Amylase Enzyme Activity [35]: 100.38%
Relative Amylase Enzyme Activity [36]: 107.10%

NCP(=O)(O)O [AMPA, Aminomethyl phosphonic acid]
Relative Amylase Enzyme Activity [1]: 82.13%
Relative Amylase Enzyme Activity [2]: 100.00%
Relative Amylase Enzyme Activity [3]: 95.55%
Relative Amylase Enzyme Activity [4]: 101.29%
Relative Amylase Enzyme Activity [5]: 80.17%
Relative Amylase Enzyme Activity [6]: 80.10%
Relative Amylase Enzyme Activity [7]: 87.43%
Relative Amylase Enzyme Activity [8]: 92.65%
Relative Amylase Enzyme Activity [9]: 93.49%
Relative Amylase Enzyme Activity [10]: 102.37%
Relative Amylase Enzyme Activity [11]: 103.78%
Relative Amylase Enzyme Activity [12]: 102.93%
Relative Amylase Enzyme Activity [13]: 100.00%
Relative Amylase Enzyme Activity [14]: 91.80%
Relative Amylase Enzyme Activity [15]: 92.54%
Relative Amylase Enzyme Activity [16]: 85.05%
Relative Amylase Enzyme Activity [17]: 94.06%
Relative Amylase Enzyme Activity [18]: 86.14%
Relative Amylase Enzyme Activity [19]: 90.32%
Relative Amylase Enzyme Activity [20]: 93.67%
Relative Amylase Enzyme Activity [21]: 92.05%
Relative Amylase Enzyme Activity [22]: 81.43%
Relative Amylase Enzyme Activity [23]: 94.06%
Relative Amylase Enzyme Activity [24]: 81.87%
Relative Amylase Enzyme Activity [25]: 97.43%
Relative Amylase Enzyme Activity [26]: 100.00%
Relative Amylase Enzyme Activity [27]: 102.34%
Relative Amylase Enzyme Activity [28]: 105.43%
Relative Amylase Enzyme Activity [29]: 92.18%
Relative Amylase Enzyme Activity [30]: 92.23%
Relative Amylase Enzyme Activity [31]: 96.88%
Relative Amylase Enzyme Activity [32]: 92.96%
Relative Amylase Enzyme Activity [33]: 103.38%
Relative Amylase Enzyme Activity [34]: 102.05%
Relative Amylase Enzyme Activity [35]: 91.32%
Relative Amylase Enzyme Activity [36]: 99.25%
